Measured values taken from paper PMC3366976, “Tuning the Drug Efflux Activity of an ABC Transporter in vivo by in vitro Selected DARPin Binders” (PLoS ONE, 2012).

Target: T1, LmrCD (Lactococcus cremoris, UniProt A2RI37+A2RI38, A2RI37:C179R)
T1 construct: gene lmrC
Assay: biochemical

T1 sequence (A2RI37 entry or part of it C179R): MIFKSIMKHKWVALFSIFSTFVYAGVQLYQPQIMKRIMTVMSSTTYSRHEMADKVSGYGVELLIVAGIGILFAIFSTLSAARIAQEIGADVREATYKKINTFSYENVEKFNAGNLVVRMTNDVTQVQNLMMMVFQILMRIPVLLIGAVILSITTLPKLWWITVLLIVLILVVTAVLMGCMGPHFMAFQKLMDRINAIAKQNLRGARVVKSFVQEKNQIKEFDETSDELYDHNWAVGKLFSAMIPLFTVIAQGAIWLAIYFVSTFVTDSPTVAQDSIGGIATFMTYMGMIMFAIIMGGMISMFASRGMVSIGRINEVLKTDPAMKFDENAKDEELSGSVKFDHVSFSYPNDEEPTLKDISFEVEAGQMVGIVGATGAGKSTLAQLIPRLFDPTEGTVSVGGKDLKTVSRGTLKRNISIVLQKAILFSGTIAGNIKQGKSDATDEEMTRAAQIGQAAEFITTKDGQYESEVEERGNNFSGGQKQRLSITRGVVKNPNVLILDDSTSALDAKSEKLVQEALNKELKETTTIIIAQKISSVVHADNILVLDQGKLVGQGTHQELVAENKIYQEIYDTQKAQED
T1 sequence (A2RI38 entry or part of it): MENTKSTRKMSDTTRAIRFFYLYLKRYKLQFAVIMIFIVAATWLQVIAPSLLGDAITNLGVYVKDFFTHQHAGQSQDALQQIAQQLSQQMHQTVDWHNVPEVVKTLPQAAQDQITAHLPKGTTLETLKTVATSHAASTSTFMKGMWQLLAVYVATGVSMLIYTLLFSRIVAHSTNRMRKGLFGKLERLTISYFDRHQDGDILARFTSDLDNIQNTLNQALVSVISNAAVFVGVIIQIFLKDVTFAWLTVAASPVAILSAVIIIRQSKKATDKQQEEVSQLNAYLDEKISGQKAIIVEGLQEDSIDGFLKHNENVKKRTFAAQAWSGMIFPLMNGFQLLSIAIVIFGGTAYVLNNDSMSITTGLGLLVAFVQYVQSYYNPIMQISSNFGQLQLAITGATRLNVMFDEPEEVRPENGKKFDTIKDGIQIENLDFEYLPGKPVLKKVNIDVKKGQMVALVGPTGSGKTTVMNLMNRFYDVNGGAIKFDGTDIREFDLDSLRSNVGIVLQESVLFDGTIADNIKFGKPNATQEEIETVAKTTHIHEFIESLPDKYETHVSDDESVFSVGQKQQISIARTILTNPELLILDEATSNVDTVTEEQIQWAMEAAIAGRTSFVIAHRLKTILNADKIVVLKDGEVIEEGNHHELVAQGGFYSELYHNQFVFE

For [O]=[V]([OH])([OH])[OH] [orthovanadate], which IC50 is on record?
The IC50 was 120 µM.
